Experimental data: patent publication US20120270771A1, “APOLIPOPROTEIN A-1 MIMIC PEPTIDES, AND THERAPEUTIC AGENT FOR TREATING HYPERLIPIDEMIA AND DISEASES RELATED TO HYPERLIPIDEMIA COMPRISING SAME” (SNU R&DB FOUNDATION, priority 2009, published 2012)
Square brackets hold non-standard residues; d marks the D form. 2Nal = N[C@@H](Cc1ccc2ccccc2c1)C(=O)O

Legend:
[1] = tryptophan fluorescence measurement of peptide with or without liposome (LUV); assay type: binding; details: for dependence of tryptophan fluorescence intensity on the relative amount of cholesterol in the liposome: LUVs containing cholesterol at 0%, 10%, 20%, 30% and 40%, FIG. 5; for tryptophan fluorescence intensity measured under LUV condition (ratio with or without liposome): 1 μM peptide, liposome 0.1 mg/ml; for tryptophan fluorescence intensity measured under LUV condition (ratio with or without liposome) / increase in fluorescence intensity in the lipid environment when compared to in aqueous solution: FIG. 4; for increase in fluorescence intensity in the lipid environment when compared to in aqueous solution: tryptophan fluorescence
Description: Total 10 mg of lipid compound was prepared by mixing phosphatidylcholine (soybean) and the LUVs containing cholesterol at 0%, 10%, 20%, 30% and 40%. The lipid compound was dissolved in 2 mL of solution containing 2:1 volumes of chloroform and methanol. The solvent is removed by using distillation condensation device and yielding a thin lipid film in the flask. The lipid film is hydrated by adding 1 mL of tertiary distilled water. Liposomes of the same size were generated by extruding the solution through a […] filter for 5 times, and 0.1 μm polycarbonate filter for 5 times using a cylinder fitted with a high pressure regulator. The amount of cholesterol contained in the liposome was measured by using cholesterol Lab-assay kit.
Fluorescence Anisotropy was measured using AMINCO-Bowman Series Luminescence Spectrometer at 20° C. For the buffer system, 10 mM HEPES (N-2-Hydroxyethylpiperazine-N′-2-Ethanesulfonic Acid, pH 7.4) containing 140 mM NaCl, 1 mM EDTA (ethylenediaminetetraacetic acid) was used. The concentration of the peptide was 500 μM and was kept at 0° C. The fluorescence emission spectrum was monitored by adding […] of peptide with 499 μl buffer solution to a final concentration of 1 μM. Liposome was added to the above buffer and peptide mixture solution to the final concentration of 0.1 mg/ml. The ratio of the intensity was calculated by measuring the spectrum in the condition of with or without liposome.

macrophage cell line = experiment: cholesterol efflux assay in macrophage cells loaded with 3H-labeled cholesterol; assay type: cell-based, Human; details: 20 μM peptide, 4 hr incubation
Description: The present inventors determined the calculated mass value of the Apo A-I mimic peptide and the actual mass value of the A-1 mimic peptide acquired following the synthesis and purification step (see Table 1). In addition, cholesterol efflux was analyzed to screen the peptides. Human macrophage cells were treated with ^3H radioisotope labeled cholesterol. Next, the cells were treated with each of the peptide prepared from above. The amount of high density lipoprotein (HDL) produced was analyzed by measuring the amount of intracellular cholesterol and extracellular cholesterol released from the macrophage. […] There was a significant increase in cholesterol efflux when phenylalanine was substituted with tryptophan or naphthylalanine (see FIG. 3).
In order to screen which of the peptide synthesized from Example 1 mimics the Apo A-I, cholesterol efflux assay was performed by treating the macrophage cell line with the peptides. In particular, DMEM (Dulbecco's Modified Eagle medium) containing penicillin-streptomycin and 10% FBS (Fetal Bovine Serum) was used as the cell culture medium. […] The culture medium and the cells were separated to measure the radioactivity using Liquid Scintillation Counter. The level of cholesterol efflux was determined by measuring the ratio of isotope labeled cholesterol remained in the cell and in the cell culture medium, respectively.

| Substance | dependence of tryptophan fluorescence intensity on the relative amount of cholesterol in the liposome [1] | tryptophan fluorescence intensity measured under LUV condition (ratio with or without liposome) [1] | increase in fluorescence intensity in the lipid environment when compared to in aqueous solution [1] | increase in cholesterol efflux when compared to peptide 4F (macrophage cell line) |
| --- | --- | --- | --- | --- |
| Ac-DWFAKDYFKKAFVEEFAK (Ac-DWFAKDYFKKAFVEEFAK-NH2) [Sc-4F, negative control group of 4F, reference compound] | irrelevant to the concentration of cholesterol |  |  |  |
| Ac-DWFKAFYDKVAEKFKEAF (Ac-DWFKAFYDKVAEKFKEAF-NH2) [4F, existing Apo A-I mimic peptide, first generation amphiphilic alpha helix peptide containing 4 phenylalanine, reference compound] | irrelevant to the concentration of cholesterol | about 1.9 |  |  |
| Ac-EWFKAFYDKVAEKFKEAF (Ac-EWFKAFYDKVAEKFKEAF-NH2) [1a] |  | ~2.1 | about 2.1 fold |  |
| Ac-EWNal2KAFYDKVAEKFKEANal2 (Ac-EW[2Nal]KAFYDKVAEKFKEA[2Nal]-NH2; SMILES CC(=O)N[C@@H](CCC(=O)O)C(=O)N[C@@H](Cc1c[nH]c2ccccc12)C(=O)N[C@@H](Cc1ccc2ccccc2c1)C(=O)N[C@@H](CCCCN)C(=O)N[C@@H](C)C(=O)N[C@@H](Cc1ccccc1)C(=O)N[C@@H](Cc1ccc(O)cc1)C(=O)N[C@@H](CC(=O)O)C(=O)N[C@@H](CCCCN)C(=O)N[C@H](C(=O)N[C@@H](C)C(=O)N[C@@H](CCC(=O)O)C(=O)N[C@@H](CCCCN)C(=O)N[C@@H](Cc1ccccc1)C(=O)N[C@@H](CCCCN)C(=O)N[C@@H](CCC(=O)O)C(=O)N[C@@H](C)C(=O)N[C@@H](Cc1ccc2ccccc2c1)C(N)=O)C(C)C) [2s] | significant increase of fluorescence intensity according to the increased concentration of the cholesterol inside the liposome | about 4.3 | about 4.30 fold | about 300% |
